Data on 1 substance can be found in paper PMC6058667 (Drug Delivery, 2018).

Assay [1] has as its system HepG-2 cells. Put plainly: MTT cytotoxicity assay. As to conditions: HepG-2 hepatoma cell line, 48 h. Format: cell-based. On the procedure:
The in vitro cytotoxicity of CuB-MMs-CPs was assessed using the MTT assay. HepG-2 cells were seeded onto 96-well plates in 200 μL. DMEM was applied to obtain a concentration of 5000 cells per well and cultured at 37 °C, 5% CO2 for 24 h to allow attachment of cells. […] The percentage of cell viability was calculated on the basis of the optical density values at 490 nm of the sample wells, which contained cells treated with the culture medium.
In general terms: Tetrazolium assays rely on reduction of a dye to a coloured formazan, in cell work by metabolically active cells.

Assay [2] concerns HepG-2 xenografts. The assay can be described thus: Antitumor study in nude mice bearing HepG-2 xenografts. The settings on record: oral, equivalent CuB dose 2 mg/kg, versus saline. Format: in vivo. The method, then:
For in vivo study, we used a nude mouse as a model for HepG-2 […]. […] All treatments were orally administered on days 1, 3, 5, 7, 9, 11, 13, 15, 17, 19, and 21. The volume of the tumor was measured daily. On day 22, mice were killed and tumors were weighed.

In general, IC50 refers to the concentration needed to halve the response being measured. Consider Cucurbitacin B [CuB], for which the IC50 in assay [1] was 104 ± 50.3 nM. Moreover, the Tumor growth result in assay [2] was “slightly slower growth than animals administered with saline”.
